What was measured:
[1] = Competition with DMSO for hydroxyl radicals (Fe3+/ascorbic acid system); format: biochemical; settings: hydroxyl radical scavenging
Procedure: Competition of the novel substituted acids with DMSO for hydroxyl radicals was measured. Hydroxyl radicals were generated using the Fe^3+/ascorbic acid system and expressed as a percentage inhibition of formaldehyde production in the presence of each compound at 100 μM (Table 2). All the synthesized derivatives strongly scavenge hydroxyl radicals at 100 μM in comparison to the reference compound Trolox.
The hydroxyl radicals generated by the Fe^3+/ascorbic acid system, were detected by the determination of formaldehyde produced from the oxidation of DMSO (Table 2). Trolox was used as reference compound [17, 18, 28].

[2] = Reducing activity of the stable radical DPPH; format: biochemical
Procedure: The substituted acids were monitored for the antioxidant activity by the use of the stable 2,2-diphenyl-1-picrylhydrazyl radical (DPPH) at concentration 50 µM and 100 µM after 20 and 60 min (Table 1). In this assay the DPPH radical is reduced by single electron transfer from the antioxidant. Strong antioxidants are the phenoxide anions from phenolic compounds like catechol and derivatives, such as nordihydroguaretic acid (NDGA), the reference compound. The compounds presented medium reducing abilities from 29–61%, due to steric reasons; small differences were found among the compounds with time and concentration. 4-Br-substituted-3 phenyl acetic acid derivatives (Series I) are equipotent to 4-OH-substituted-3 phenyl acetic acid derivatives (Series II). No differences were observed between 4i and 5i and 4ii and 5ii.
To a solution of DPPH in absolute ethanol an equal volume of the compounds dissolved in DMSO was added. The final concentrations of the measured solutions of the novel acids were 50 and 100 µM starting from a stock solution (10 mM) in DMSO. The absorbance was recorded at 517 nm, after 20 and 60 min at room temperature (Table 1).

[3] = molecular target: T1, soybean lipoxygenase (Glycine max, UniProt P08170); assay: Soybean lipoxygenase inhibition in vitro; format: biochemical; settings: sodium linoleate 0.1 mM, 234 nm, read-out: LOX IC50
T1 construct: purchased Sigma Chemical, Co. (St. Louis)
T1 sequence (P08170 1-839): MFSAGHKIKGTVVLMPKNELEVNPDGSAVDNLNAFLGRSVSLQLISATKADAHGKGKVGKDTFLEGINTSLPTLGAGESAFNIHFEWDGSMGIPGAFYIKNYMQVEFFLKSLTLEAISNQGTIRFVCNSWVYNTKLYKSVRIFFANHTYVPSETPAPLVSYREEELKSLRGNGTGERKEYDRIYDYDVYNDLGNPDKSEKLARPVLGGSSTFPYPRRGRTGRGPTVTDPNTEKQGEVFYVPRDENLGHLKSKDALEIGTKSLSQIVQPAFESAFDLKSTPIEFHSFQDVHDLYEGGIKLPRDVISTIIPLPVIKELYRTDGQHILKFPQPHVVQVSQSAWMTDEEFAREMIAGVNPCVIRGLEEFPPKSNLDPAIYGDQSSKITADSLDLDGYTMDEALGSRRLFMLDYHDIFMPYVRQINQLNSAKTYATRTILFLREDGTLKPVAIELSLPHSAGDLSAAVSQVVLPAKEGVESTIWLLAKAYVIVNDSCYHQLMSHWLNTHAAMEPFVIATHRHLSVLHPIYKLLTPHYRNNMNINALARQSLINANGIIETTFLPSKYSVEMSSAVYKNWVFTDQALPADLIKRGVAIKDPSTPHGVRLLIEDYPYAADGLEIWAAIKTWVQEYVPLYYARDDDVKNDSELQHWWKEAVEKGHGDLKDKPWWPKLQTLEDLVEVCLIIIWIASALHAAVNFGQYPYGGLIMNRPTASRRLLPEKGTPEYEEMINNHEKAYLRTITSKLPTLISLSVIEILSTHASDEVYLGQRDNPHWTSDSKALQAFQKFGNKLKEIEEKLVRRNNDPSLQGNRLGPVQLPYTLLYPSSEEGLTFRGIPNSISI
Procedure: Many research groups have used readily obtainable soybean lipoxygenase, which is a homologue of mammalian lipoxygenase and well studied. Due to its availability and its well-characterised crystal structure, soybean LOX was selected to be used in this study.
In vitro study was evaluated as reported previously by our group. The tested compounds were incubated at room temperature with sodium linoleate (0.1 mM) and 0.2 mL of enzyme solution (1/9 × 104 w/v in saline). The method was based to the conversion of sodium linoleate to 13-hydroperoxylinoleic acid at 234 nm. […] In order to determine the IC50 values different concentrations were used.

[4] = Experimental lipophilicity as RM values by reversed phase TLC (RPTLC); format: physicochemical; settings: methanol/water 77/23 with 0.1% acetic acid, 24 °C, average of at least 5 measurements
From the text: Lipophilicity is a physicochemical property correlated with the biological activity. Lipophilicity influences ligand-target binding interactions, solubility, absorption, distribution, bioavailability, metabolism and elimination (ADME) and toxicological outcomes. The lipophilicity of the novel cinnamic acids was experimentally measured as RM values using a reverse phase thin layer chromatography (RPTLC) method. This is acknowledged as a reliable, fast and convenient approach for expressing lipophilicity (Table 1). RM relates to the thermodynamic Rf value in a logarithmic form. Bate-Smith and Westall firstly determined lipophilicity as RM values in 1950 [31]. The Br-substituted derivatives 1i–7i are more lipophilic than the OH-substituted ones 1ii–7ii which can be easily explained by their structural characteristics.
Reversed phase TLC (RPTLC) was performed on silica gel plates impregnated with 55% (v/v) liquid paraffin in light petroleum ether. The mobile phase was a methanol/water mixture (77/23, v/v) containing 0.1% of acetic acid. The plates were developed in closed chromatography tanks saturated with the mobile phase at 24 °C. Spots were detected under UV light. RM values were determined from the corresponding Rf values (from five individual measurements) using the equation RM = log[(1/Rf) − 1] [17, 18, 28].

[5] = Non enzymatic assay of superoxide radical scavenging activity (PMS/NADH/NBT); format: biochemical
Procedure: Superoxide radical is a main cause of oxidative stress, expressing its biological toxicity by the inactivation of iron-sulfur cluster containing enzymes. The superoxide anion radical (O2^−^•) is less toxic than the hydroxyl radical, but still being one of the most known toxic reactive oxygen species (ROS). In this assay the superoxide anion radicals were generated by a non-enzymatically assay and the compounds are tested at 100 μM final concentration (Table 2). Caffeic acid (CA) has been used as a reference compound. Compound 4ii presented the highest activity, followed by compound 3ii. We succeeded to derive a quantitative-structure activity relationship model for this activity in which the topological polar surface (TPAS) of the compounds seem to govern the superoxide anion scavenging activity:% Superoxide Anion Scavenging Activity (100 µM) = 0.019 (±0.007) TPSA + 0.813 (±0.358) n = 6, r = 0.962, r^2 = 0.926, q^2 = 0.694, s = 0.122, Q = 7.885, F1,6 = 3.701, α = 0.1 clog P vs. TPSA 0.
The superoxide radicals are generated by mixing N-methylphenazonium methyl sulfate (PMS), NADH and air–oxygen and determined by the nitroblue tetrazolium method and measured at 560 nm (Table 2). Caffeic acid was used as reference compound [17, 18, 28].

[6] = ABTS+• decolorization assay; format: biochemical; settings: 1 min, 734 nm
Procedure: No role for lipophilicity was found. Oxidation of ABTS with potassium persulfate generates directly the ABTS radical cation (ABTS^+•) with no involvement of an intermediary radical, which is then reduced upon adding electron-donating antioxidants.
In order to produce the ABTS radical cation (ABTS^+•), ABTS stock solution in water (7 mM) was mixed with potassium persulfate (2.45 mM) and left in the dark at room temperature for 12–16 h before use. Our published experimental technique was used (Table 2). The results are recorded after 1 min of the mixing solutions at 734 nm. The results were compared to the appropriate standard inhibitor Trolox.

[7] = Inhibition of linoleic acid peroxidation (AAPH); format: biochemical; settings: anti-lipid peroxidation
From the text: We also used water-soluble 2,2′-[…](2-amidinopropane) hydrochloride (AAPH) for the generation of free radicals. AAPH has been extensively used as a clean and controllable source of thermally produced alkylperoxyl free radicals. The peroxyl radicals produced by the action of AAPH show total similarity to cellular activities such as lipid peroxidation. […] It seems that the presence of 3,5-di-tert-butyl-group greatly enhances protection against lipid peroxidation (6i/ii and 7i/ii followed by 3ii and 5ii). The lipid peroxidation inhibitory activity seems to be concentration dependent.
2,2’-Azobis(2-amidinopropane) dihydrochloride (AAPH) was used as a free radical initiator to start the oxidation reaction. The method was based on the production of conjugated diene hydroperoxide by oxidation of linoleic acid at 234 nm expressed as an increased absorption. Trolox was used as reference compound (93%) (Table 2).

IC50 [3]: 81.5 µM | RM (±SD) [4]: −0.565 (0.003) | melting point: 90 to 91 °C
SMILES: CC(=Cc1ccccc1)C=C(C(=O)O)c1ccc(O)cc1 [Compound 5ii, 2-(4-Hydroxyphenyl)-4-methyl-5-phenylpenta-2,4-dienoic acid]
HO•% 100 µM [1]: 89% | RA% 50 µM 20 min ([2]; 50 µM, 20 min): 32% | RA% 50 µM 60 min ([2]; 50 µM, 60 min): 39% | RA% 100 µM 20 min ([2]; 100 µM, 20 min): 30% | RA% 100 µM 60 min ([2]; 100 µM, 60 min): 41% | O2−•% 100 µM [5]: 8% | ABTS+•% 100 µM [6]: 35% | AAPH% 50 µM ([7]; 50 µM): 53% | AAPH% 100 µM ([7]; 100 µM): 93%
